Results from patent publication US10174026B2, “Histone demethylase inhibitors” (CELGENE QUANTICEL RESEARCH, INC., priority 2013, dated 2019).

Tests used:
KYSE-150 cell line = assay: In vitro cell-based assay, KYSE-150 cell line: BrdU cell proliferation ELISA; conditions: Homo sapiens; KYSE-150 cells, 168 hr, BrdU incorporation
Method: The primary cellular assay for JMJD2C inhibition is an assay which measures cellular proliferation via Bromodeoxyuridine (BrdU) incorporation after 168 hr of compound incubation. This assay is a quantitative ELISA assay measuring DNA incorporation of BrdU during S-phase as a direct readout of cellular proliferation. The KYSE-150 cell line is a JMJD2C gene amplified cell line.
This is a colorimetric immunoassay for the quantification of cell proliferation. Cells treated for 168 hr with test compounds are assayed for their ability to go through S-phase as a measure of their proliferative potential.
The human KYSE-150 (SMAD4 mut, TP53 mut) esophageal carcinoma cell line was seeded at 2,000 cells/well on a 96-well tissue culture treated plate. After an overnight incubation, cells were treated with a test compound in an 11 point dilution series with final concentrations ranging from 100 μM to 2 nM. Cells were then incubated in the presence of compound for 168 hr. After compound incubation, the cells were assayed using a BrdU Cell Proliferation ELISA (Roche). The cells were first incubated with BrdU labeling reagent for 2 hr. After 2 hr, these BrdU incorporated cells were fixed and denatured, probed with an anti-BrdU-Peroxidase antibody for 1.5 hr and washed. Finally, a tetramethylbenzidine peroxidase substrate was added to each well for 15 min followed by H2SO4 stop solution. The plate is read at 450 nm, and the raw optical density data is transferred into XLFit (IDBS) for IC50 calculation using the formula: fit=(D+((Vmax*(x^n))/((x^n)+(Km^n))))

JMJD2C = JMJD2C (Homo sapiens (Human), UniProt Q9H3R0); assay: JMJD2C in vitro enzyme inhibition assay (TR-FRET); assay type: biochemical
Method: (§1) This assay determines the ability of a test compound to inhibit Jarid1A, Jarid1B, JMJD2C, and JMJD2A demethylase activity.
Reaction product was determined quantitatively by TR-FRET after the addition of detection reagent Phycolink Streptavidin-allophycocyanin (Prozyme) and Europium-anti-di-methylated histone H3 lysine 9 (H3K9me2) antibody (PerkinElmer) in the presence of 5 mM EDTA in LANCE detection buffer (PerkinElmer) at a final concentration of 50 nM and 1 nM, respectively.

Jarid1A = Jarid1A (Homo sapiens (Human), UniProt P29375); assay: Jarid1A in vitro enzyme inhibition assay (TR-FRET); assay type: biochemical
Method: as §1
The enzymatic assay of Jarid1A activity is based upon Time Resolved-Fluorescence Resonance Energy Transfer (TR-FRET) detection.
The assay reaction was initiated by the following: 2 μl of the mixture of 900 nM H3K4me3-biotin labeled peptide and 6 μM alpha-ketoglutaric acid with 2 μl of 11-point serial diluted inhibitor in 3% DMSO was added to each well of plate, followed by the addition of 2 μl of 3 nM Jarid1A to initiate the reaction. The reaction mixture was incubated at room temp for 30 min, and terminated by the addition of 6 μl of 5 mM EDTA in LANCE detection buffer containing 50 nM Phycolink Streptavidin-allophycocyanin and 2 nM Europium-anti-H3K4me1-2 antibody.

Jarid1B = Jarid1B (Homo sapiens (Human), UniProt Q9UGL1); assay: Jarid1B in vitro enzyme inhibition assay (TR-FRET); assay type: biochemical
Method: as §1
The reaction mixture was incubated at room temp for 30 min, and terminated by the addition of 6 μl of 5 mM EDTA in LANCE detection buffer containing 50 nM Phycolink Streptavidin-allophycocyanin and 2 nM Europium-anti-H3K4me1-2 antibody.

Chain of Jarid1B (Q9UGL1 2-751): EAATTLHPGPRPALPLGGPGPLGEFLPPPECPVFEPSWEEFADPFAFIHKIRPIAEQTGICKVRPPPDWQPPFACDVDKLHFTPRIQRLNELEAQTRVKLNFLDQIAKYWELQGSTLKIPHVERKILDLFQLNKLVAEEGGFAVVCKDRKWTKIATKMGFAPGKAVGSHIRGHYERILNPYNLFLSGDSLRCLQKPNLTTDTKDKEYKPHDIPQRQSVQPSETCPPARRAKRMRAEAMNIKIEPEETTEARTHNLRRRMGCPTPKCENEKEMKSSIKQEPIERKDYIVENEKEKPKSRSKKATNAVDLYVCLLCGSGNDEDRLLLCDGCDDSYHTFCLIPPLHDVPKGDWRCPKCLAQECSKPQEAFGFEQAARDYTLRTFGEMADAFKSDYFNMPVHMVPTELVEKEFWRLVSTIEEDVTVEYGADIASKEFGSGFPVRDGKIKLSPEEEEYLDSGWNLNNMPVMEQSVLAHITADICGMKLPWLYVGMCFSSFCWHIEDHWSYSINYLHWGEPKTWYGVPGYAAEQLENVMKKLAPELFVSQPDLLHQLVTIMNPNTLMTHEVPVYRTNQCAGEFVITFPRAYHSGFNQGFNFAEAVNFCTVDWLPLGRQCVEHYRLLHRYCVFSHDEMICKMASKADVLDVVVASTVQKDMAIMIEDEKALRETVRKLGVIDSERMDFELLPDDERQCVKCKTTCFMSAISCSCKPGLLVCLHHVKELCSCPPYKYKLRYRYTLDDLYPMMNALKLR
Chain of Jarid1A (P29375 1-1090): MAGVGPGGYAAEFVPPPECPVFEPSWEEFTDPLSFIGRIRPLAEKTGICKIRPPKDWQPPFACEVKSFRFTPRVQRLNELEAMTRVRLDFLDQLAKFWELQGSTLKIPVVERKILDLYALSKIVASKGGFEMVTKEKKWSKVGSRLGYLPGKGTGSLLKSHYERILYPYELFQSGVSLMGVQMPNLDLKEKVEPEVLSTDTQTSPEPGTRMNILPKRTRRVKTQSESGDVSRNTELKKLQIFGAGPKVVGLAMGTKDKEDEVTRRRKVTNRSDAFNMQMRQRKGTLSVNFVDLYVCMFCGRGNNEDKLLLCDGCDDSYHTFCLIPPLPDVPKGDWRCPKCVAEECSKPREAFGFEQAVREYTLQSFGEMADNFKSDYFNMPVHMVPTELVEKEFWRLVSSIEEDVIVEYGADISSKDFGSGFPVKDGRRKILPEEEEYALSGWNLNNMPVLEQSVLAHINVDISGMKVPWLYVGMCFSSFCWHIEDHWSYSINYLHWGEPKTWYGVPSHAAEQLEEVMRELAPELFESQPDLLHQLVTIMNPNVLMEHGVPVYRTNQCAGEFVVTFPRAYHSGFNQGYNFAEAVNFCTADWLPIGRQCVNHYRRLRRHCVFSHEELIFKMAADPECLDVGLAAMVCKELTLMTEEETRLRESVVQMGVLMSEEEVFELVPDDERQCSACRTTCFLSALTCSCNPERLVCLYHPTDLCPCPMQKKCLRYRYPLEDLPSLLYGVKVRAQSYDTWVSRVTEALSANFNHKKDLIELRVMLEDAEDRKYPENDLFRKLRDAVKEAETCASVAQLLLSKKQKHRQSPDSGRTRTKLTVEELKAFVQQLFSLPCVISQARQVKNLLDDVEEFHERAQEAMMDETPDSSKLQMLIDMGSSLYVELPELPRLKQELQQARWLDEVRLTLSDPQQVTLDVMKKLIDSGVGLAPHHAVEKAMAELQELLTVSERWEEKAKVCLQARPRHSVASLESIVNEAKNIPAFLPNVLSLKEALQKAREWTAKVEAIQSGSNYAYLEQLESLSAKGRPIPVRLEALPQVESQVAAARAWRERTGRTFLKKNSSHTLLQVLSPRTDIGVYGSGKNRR
Chain of JMJD2C (Q9H3R0 2-372): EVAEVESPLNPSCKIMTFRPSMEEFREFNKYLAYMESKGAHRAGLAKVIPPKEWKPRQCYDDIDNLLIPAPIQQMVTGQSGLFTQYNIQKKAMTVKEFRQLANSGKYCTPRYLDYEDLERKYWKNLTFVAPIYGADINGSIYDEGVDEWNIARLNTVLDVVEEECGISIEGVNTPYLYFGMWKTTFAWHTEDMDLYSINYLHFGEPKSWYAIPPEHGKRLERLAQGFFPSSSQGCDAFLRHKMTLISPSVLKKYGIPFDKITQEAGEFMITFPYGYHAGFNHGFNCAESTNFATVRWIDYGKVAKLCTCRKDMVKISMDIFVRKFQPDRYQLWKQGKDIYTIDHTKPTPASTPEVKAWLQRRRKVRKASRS

| Compound | IC50 (KYSE-150 cell line) [nM] | further results |
| --- | --- | --- |
| COC(=O)c1ccnc2cc(Cc3ccc(F)c(F)c3)[nH]c12 [Example 125, methyl 2-(3,4-difluorobenzyl)-1H-pyrrolo[3,2-b]pyridine-7-carboxylate] | 1000 to 10000 |  |
| COC(=O)c1ccnc2cc(Cc3ccc(Cl)c(OC)c3)[nH]c12 [Example 127, methyl 2-(4-chloro-3-methoxybenzyl)-1H-pyrrolo-[3,2-b]-pyridine-7-carboxylate] | < 100 |  |
| COC(=O)c1ccnc2cc(Cc3ccc(Cl)c(Cl)c3)[nH]c12 [Example 129, methyl 2-(3,4-dichlorobenzyl)-1H-pyrrolo[3,2-b]pyridine-7-carboxylate] | < 100 |  |
| COC(=O)c1ccnc2cc(Cc3cc(F)c(Cl)c(Cl)c3)[nH]c12 [Example 131, methyl 2-(3,4-dichloro-5-fluorobenzyl)-1H-pyrrolo-[3,2-b]pyridine-7-carboxylate] | < 100 |  |
| COC(=O)c1ccnc2cc(Cc3ccc(Cl)c(C)c3)[nH]c12 [Example 133, methyl-2-(4-chloro-3-methylbenzyl)-1H-pyrrolo-[3,2-b]pyridine-7-carboxylate] | 100 to 1000 |  |
| COC(=O)c1ccnc2cc(Cc3ccc(Cl)c(C(F)(F)F)c3)[nH]c12 [Example 135, methyl 2-[4-chloro-3-(trifluoromethyl)benzyl]-1H-pyrrolo[3,2-b]pyridine-7-carboxylate] | < 100 |  |
| COC(=O)c1ccnc2cc(Cc3ccc(Cl)c(OCC4CC4)c3)[nH]c12 [Example 137, methyl 2-[4-chloro-3-(cyclo-propylmethoxy)benzyl]-1H-pyrrolo[3,2-b]pyridine-7-carboxylate] | < 100 |  |
| COC(=O)c1ccnc2cc(Cc3ccc(Cl)c(OCC(F)(F)F)c3)[nH]c12 [Example 139, methyl-2-[4-chloro-3-(2,2,2-trifluoroethoxy)benzyl]-1H-pyrrolo[3,2-b]pyridine-7-carboxylate] | < 100 |  |
| COC(=O)c1ccnc2cc(Cc3ccc(Cl)c(OC(F)(F)F)c3)[nH]c12 [Example 141, methyl-2-[4-chloro-3-(trifluoromethoxy)benzyl]-1H-pyrrolo[3,2-b]pyridine-7-carboxylate] | < 100 |  |
| CNC(=O)c1ccnc2cc(Cc3ccc(Cl)cc3)[nH]c12 [Example 143, 2-[4-chloro-benzyl]-N-methyl-1H-pyrrolo[3,2-b]pyridine-7-carboxamide] | 100 to 1000 |  |
| CNC(=O)c1ccnc2cc(Cc3ccc(Cl)c(OC(F)(F)F)c3)[nH]c12 [Example 144, 2-[4-chloro-3-(trifluoro-methoxy)benzyl]-N-methyl-1H-pyrrolo-[3,2-b]pyridine-7-carboxamide] | < 100 |  |
| (±)-methyl 2-(1-hydroxy-2-methylpropyl)-1H-pyrrolo[3,2-b]-pyridine-7-carboxylate [Example 30] |  | IC50 (JMJD2C): < 100 nM; IC50 (Jarid1A): 100 to 1000 nM; IC50 (Jarid1B): < 100 nM |
